Data: ChEMBL document CHEMBL5500412, “Discovery of Highly Selective, Potent, Covalent, and Orally Bioavailable Factor XIIa Inhibitors for the Treatment of Thrombo-Inflammation” (J Med Chem, 2024)
Activity calls are given as the source filed them. The calls are words filed in the database; no cut-off is given here.

Columns and labels:
Prothrombin = Prothrombin (Homo sapiens, UniProt P00734); experiment: Inhibition of thrombin (unknown origin) using H-D-Phe-Pip-Arg-pNA-2HCl as substrate incubated for 20 mins followed by substrate addition by spectrophotometric analysis
Plasma kallikrein = Plasma kallikrein (Homo sapiens, UniProt P03952); experiment: Inhibition of PKal (unknown origin) using H-D-Pro-Phe-Arg-pNA-2HCl as substrate incubated for 20 mins followed by substrate addition by spectrophotometric analysis
Sequence of Plasma kallikrein (P03952 20-390 limits assumed): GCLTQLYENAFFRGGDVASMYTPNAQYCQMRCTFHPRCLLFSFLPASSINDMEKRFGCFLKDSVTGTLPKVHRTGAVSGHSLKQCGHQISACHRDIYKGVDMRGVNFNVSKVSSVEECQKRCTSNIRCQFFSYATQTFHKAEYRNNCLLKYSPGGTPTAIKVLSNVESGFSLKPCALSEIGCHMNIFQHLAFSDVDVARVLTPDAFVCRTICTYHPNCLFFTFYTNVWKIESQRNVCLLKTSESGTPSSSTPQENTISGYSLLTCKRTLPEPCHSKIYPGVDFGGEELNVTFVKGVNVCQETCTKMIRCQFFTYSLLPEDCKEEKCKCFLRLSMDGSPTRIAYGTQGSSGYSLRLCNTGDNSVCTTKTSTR
Sequence of Plasma kallikrein (P03952 391-638 limits assumed): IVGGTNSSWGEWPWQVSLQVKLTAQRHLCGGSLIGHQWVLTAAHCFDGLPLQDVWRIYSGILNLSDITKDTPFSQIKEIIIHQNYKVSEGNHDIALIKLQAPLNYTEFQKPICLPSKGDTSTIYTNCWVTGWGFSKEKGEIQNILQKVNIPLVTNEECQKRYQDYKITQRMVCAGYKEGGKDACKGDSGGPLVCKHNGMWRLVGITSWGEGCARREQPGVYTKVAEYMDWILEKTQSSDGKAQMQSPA

Coagulation factor XI = Coagulation factor XI (Homo sapiens, UniProt P03951); experiment: Inhibition of FXIa (unknown origin) using p-Glu-Pro-Arg-pNA.HCl as chromogenic substrate incubated for 20 mins followed by substrate addition by spectrophotometric analysis
Sequence of Coagulation factor XI (P03951 19-387 limits assumed): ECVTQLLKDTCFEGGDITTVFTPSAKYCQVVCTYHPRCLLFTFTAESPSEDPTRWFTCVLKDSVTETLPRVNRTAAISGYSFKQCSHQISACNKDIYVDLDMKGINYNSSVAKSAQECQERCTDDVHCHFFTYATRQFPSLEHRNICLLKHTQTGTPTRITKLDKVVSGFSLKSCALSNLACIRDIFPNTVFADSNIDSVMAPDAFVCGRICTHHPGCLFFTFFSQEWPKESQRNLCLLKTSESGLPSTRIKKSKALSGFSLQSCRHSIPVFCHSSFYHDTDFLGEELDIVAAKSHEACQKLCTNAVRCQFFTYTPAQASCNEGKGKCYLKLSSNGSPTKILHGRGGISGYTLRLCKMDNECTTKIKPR
Sequence of Coagulation factor XI (P03951 388-625 limits assumed): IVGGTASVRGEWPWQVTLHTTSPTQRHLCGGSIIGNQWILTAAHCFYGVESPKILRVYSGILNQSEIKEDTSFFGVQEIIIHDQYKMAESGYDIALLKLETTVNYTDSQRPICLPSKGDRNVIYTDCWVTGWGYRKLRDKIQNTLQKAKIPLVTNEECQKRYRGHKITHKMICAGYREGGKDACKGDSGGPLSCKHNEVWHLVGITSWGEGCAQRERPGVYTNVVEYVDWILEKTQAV

Coagulation factor X = Coagulation factor X (Homo sapiens, UniProt P00742); experiment: Inhibition of FXa (unknown origin) using Z-D-Arg-Gly-Arg-pNA.2HCl as chromogenic substrate incubated for 20 mins followed by substrate addition by spectrophotometric analysis
Sequence of Coagulation factor X (P00742 41-179 limits assumed): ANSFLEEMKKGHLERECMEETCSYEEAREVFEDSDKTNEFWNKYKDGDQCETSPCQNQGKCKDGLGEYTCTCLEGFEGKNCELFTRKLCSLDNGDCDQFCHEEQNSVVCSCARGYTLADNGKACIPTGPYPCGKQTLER
Sequence of Coagulation factor X (P00742 235-488 limits assumed): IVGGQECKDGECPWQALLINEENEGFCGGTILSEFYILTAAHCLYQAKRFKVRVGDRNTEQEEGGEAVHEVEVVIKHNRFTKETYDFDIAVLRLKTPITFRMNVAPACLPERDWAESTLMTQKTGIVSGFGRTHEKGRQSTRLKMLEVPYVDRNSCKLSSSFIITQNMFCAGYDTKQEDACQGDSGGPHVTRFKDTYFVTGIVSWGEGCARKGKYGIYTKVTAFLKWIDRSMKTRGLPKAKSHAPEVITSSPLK

Trypsin = Trypsin (Homo sapiens, UniProt P07477+P07478+P35030); experiment: Inhibition of trypsin (unknown origin) using Bz-lle-Glu(gamma-OR)-Gly-Arg-pNA.HCl as chromogenic substrate incubated for 20 mins followed by substrate addition by spectrophotometric analysis; type: protein assay
Chymotrypsin = Chymotrypsin (Homo sapiens, UniProt Q99895+P17538+P40313+Q6GPI1); experiment: Inhibition of Chymotrypsin (unknown origin) using N-Suc-Ala-Ala-Pro-Phe-pNA as chromogenic substrate incubated for 20 mins followed by substrate addition by spectrophotometric analysis; type: protein assay
Plasminogen = Plasminogen (Homo sapiens, UniProt P00747); experiment: Inhibition of plasmin (unknown origin) using PyroGlu-Phe-Lys-pNA.HCl as chromogenic substrate incubated for 20 mins followed by substrate addition by spectrophotometric analysis
Sequence of Plasminogen (P00747 97-580 limits assumed): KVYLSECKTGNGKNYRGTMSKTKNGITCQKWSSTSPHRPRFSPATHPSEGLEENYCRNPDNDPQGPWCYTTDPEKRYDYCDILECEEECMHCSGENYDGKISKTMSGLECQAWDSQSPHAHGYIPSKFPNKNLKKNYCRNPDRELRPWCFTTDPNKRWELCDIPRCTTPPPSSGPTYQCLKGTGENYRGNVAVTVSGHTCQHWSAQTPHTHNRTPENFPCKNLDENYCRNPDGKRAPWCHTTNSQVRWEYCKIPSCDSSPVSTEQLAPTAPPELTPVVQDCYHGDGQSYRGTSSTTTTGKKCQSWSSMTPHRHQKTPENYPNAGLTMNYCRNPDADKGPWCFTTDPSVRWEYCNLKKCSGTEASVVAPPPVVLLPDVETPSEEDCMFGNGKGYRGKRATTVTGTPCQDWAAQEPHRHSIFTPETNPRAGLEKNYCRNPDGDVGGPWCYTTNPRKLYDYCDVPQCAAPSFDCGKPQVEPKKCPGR
Sequence of Plasminogen (P00747 581-810 limits assumed): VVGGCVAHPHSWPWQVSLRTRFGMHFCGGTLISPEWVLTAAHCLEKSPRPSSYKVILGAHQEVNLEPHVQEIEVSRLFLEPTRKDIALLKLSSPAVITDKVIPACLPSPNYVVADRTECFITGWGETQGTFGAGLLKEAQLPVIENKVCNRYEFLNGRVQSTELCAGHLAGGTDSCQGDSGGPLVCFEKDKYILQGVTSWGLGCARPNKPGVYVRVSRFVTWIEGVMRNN

[1] = target: Tissue-type plasminogen activator (Homo sapiens, UniProt P00750); experiment: Inhibition of tPA (unknown origin) using H-D-lle-Pro-Arg-pNA-2HCl as chromogenic substrate incubated for 20 mins followed by substrate addition by spectrophotometric analysis
Sequence of Tissue-type plasminogen activator (P00750 whole entry): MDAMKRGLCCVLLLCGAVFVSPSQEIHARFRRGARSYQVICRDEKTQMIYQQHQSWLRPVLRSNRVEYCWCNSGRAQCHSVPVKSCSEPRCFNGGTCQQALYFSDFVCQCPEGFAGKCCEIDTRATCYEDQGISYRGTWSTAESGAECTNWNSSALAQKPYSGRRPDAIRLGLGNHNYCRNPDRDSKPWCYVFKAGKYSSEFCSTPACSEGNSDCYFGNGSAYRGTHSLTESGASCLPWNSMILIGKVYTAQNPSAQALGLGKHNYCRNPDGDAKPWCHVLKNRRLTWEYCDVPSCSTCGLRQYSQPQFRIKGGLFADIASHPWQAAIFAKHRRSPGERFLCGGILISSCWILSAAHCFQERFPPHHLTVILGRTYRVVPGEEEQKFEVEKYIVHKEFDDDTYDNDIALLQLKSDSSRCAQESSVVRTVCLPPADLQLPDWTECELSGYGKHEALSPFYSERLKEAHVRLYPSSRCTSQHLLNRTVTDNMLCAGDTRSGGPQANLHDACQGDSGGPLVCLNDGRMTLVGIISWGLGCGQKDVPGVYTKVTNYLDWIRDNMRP

[2] = Selectivity index, ratio of IC50 for thrombin (unknown origin) to IC50 for FXIIa (unknown origin)
[3] = Selectivity index, ratio of IC50 for PKal (unknown origin) to IC50 for FXIIa (unknown origin)
[4] = Selectivity index, ratio of IC50 for FXIa (unknown origin) to IC50 for FXIIa (unknown origin)
[5] = Selectivity index, ratio of IC50 for trypsin (unknown origin) to IC50 for FXIIa (unknown origin)
[6] = Selectivity index, ratio of IC50 for chymotrypsin (unknown origin) to IC50 for FXIIa (unknown origin)
[7] = Selectivity index, ratio of IC50 for plasmin (unknown origin) to IC50 for FXIIa (unknown origin)
[8] = Selectivity index, ratio of IC50 for tPA (unknown origin) to IC50 for FXIIa (unknown origin)
Plasma [9] = experiment: Anticoagulant activity in human blood plasma at 75 uM measures upto 20 mins by aPTT reagent based analysis; type: functional, cell-free
Plasma [10] = experiment: Anticoagulant activity in mouse plasma at 25 uM measures upto 20 mins by aPTT reagent based analysis; type: functional, cell-free
RAW264.7 [11] = experiment: Antiinflammatory activity in mouse RAW264.7 cells assessed as inhibition of LPS-induced IL-1 beta expression at 10 uM preincubated for 12 hrs followed by LPS stimulation and measured after 12 hrs by real time quantitative RT-PCR assay; type: functional, cell-based; settings: time 24.0 hrs
RAW264.7 [12] = experiment: Antiinflammatory activity in mouse RAW264.7 cells assessed as inhibition of LPS-induced IL-6 expression at 10 uM preincubated for 12 hrs followed by LPS stimulation and measured after 12 hrs by real time quantitative RT-PCR assay; type: functional, cell-based; settings: time 24.0 hrs
RAW264.7 [13] = experiment: Antiinflammatory activity in mouse RAW264.7 cells assessed as inhibition of LPS-induced IL-1 beta expression preincubated for 12 hrs followed by LPS stimulation and measured after 12 hrs by real time quantitative RT-PCR assay; type: functional, cell-based; settings: dose 5-10 µM, time 24.0 hrs
RAW264.7 [14] = experiment: Antiinflammatory activity in mouse RAW264.7 cells assessed as inhibition of LPS-induced IL-6 expression preincubated for 12 hrs followed by LPS stimulation and measured after 12 hrs by real time quantitative RT-PCR assay; type: functional, cell-based; settings: dose 5-10 µM, time 24.0 hrs
RAW264.7 [15] = experiment: Cytotoxicity against mouse RAW264.7 cells assessed as reduction in cell viability at upto 40 uM by CCK-8 assay; type: toxicity, cell-based; settings: raw264.7, 40 µM
Mus musculus [16] = experiment: Antithrombotic activity in carrageenan induced thrombosis in male BALB/c mouse model assessed as reduction in tail thrombosis administered as IG dose preadministered with PBS for 7 days followed by carrageenan stimulation on day 7 and measured after 2 days post compound administration; type: functional, organism-based; settings: dose 10-30 mg/kg, time 2.0 day
Mus musculus [17] = experiment: Antithrombotic activity in carrageenan induced thrombosis in male BALB/c mouse model assessed as thrombosis rate at 30 mg/kg, IG preadministered with PBS for 7 days followed by carrageenan stimulation on day 7 and measured after 2 days post compound administration relative to control; type: functional; settings: time 2 day
Mus musculus [18] = experiment: Antithrombotic activity in carrageenan induced thrombosis in male BALB/c mouse model assessed as inhibition of tail thrombosis at 20 mg/kg, IG administered for 9 days with carrageenan stimulation on day 7 by H and E staining based analysis; type: functional, organism-based; settings: time 9.0 day
Mus musculus [19] = experiment: Antiinflammatory activity in carrageenan-induced thrombosis in male BALB/c mouse model assessed as reduction in IL-1 beta level at 20 mg/kg, po by ELISA method; type: functional, organism-based
Mus musculus [20] = experiment: Antiinflammatory activity in carrageenan-induced thrombosis in male BALB/c mouse model assessed as reduction in IL-6 level at 20 mg/kg, po by ELISA method; type: functional, organism-based
Plasma [21] = experiment: Anticoagulant activity in human plasma assessed as prolongation of activated partial thromboplastin time at 300 uM incubated for 2 mins by aPTT reagent based assay relative to control; type: functional
Plasma [22] = experiment: Anticoagulant activity in human plasma assessed as prolongation of activated partial thromboplastin time incubated for 2 mins by aPTT reagent based assay; type: functional
Plasma [23] = experiment: Anticoagulant activity in non-activated human plasma at 10 to 25 uM measured after 260 mins; type: functional, cell-free; settings: dose 10-25 µM
Plasma [24] = experiment: Selectivity ratio of anticoagulant activity in non-activated human plasma at 10 to 25 uM measured after 260 mins to anticoagulant activity in non-activated human plasma at 10 to 25 uM measured after 2 mins; type: functional; settings: dose 10-25 µM, 4.333 h
Plasma [25] = experiment: Anticoagulant activity in non-activated human plasma assessed as prolongation of activated partial thromboplastin time measured after 260 mins; type: functional; settings: 4.333 h
[26] = Stability of the compound in water at pH 5 to 7 measured after 48 hrs; type: physicochemical; settings: buffer, pH 5, 48 h
[27] = Stability of the compound in water under acidic condition at pH 3 measured after 48 hrs; type: physicochemical; settings: buffer, pH 3, 48 h
[28] = Stability of the compound in water under […] condition at pH 11 measured after 48 hrs; type: physicochemical; settings: buffer, pH 11, 48 h

IC50 (Prothrombin) | IC50 (Plasma kallikrein) | IC50 (Coagulation factor XI) | IC50 (Coagulation factor X) | IC50 (Trypsin) | IC50 (Chymotrypsin) | IC50 (Plasminogen) | IC50 [1] | Ratio IC50 [2] | Ratio IC50 [3] | Ratio IC50 [4] | Ratio IC50 [5] | Ratio IC50 [6] | Ratio IC50 [7] | Ratio IC50 [8] | Compound | Activity (Plasma [9]) | Activity (Plasma [10]) | Activity (RAW264.7 [11]) | Activity (RAW264.7 [12]) | Activity (RAW264.7 [13]) | other results
20 µM | > 25 µM | > 25 µM | > 25 µM | > 25 µM | > 25 µM | > 25 µM | > 25 µM | 910 | > 670 | > 670 | > 670 | > 670 | > 670 | > 670 | CC(C)N1CCN(c2ccc(C(=O)n3nc(-c4ccccn4)nc3N)c3ccccc23)CC1 | Active | Active | Active | Active | Dose-Dependent Effect | Activity (RAW264.7 [14]): Dose-Dependent Effect; Activity (RAW264.7 [15]): Non-Toxic; Activity (Mus musculus [16]): Dose-Dependent Effect; Activity (Mus musculus [17]): ~30%; Activity (Mus musculus [18]): Active; Activity (Mus musculus [19]): Active; Activity (Mus musculus [20]): Active; Activity (Plasma [21]): 542%; EC1.5 (Plasma [22]): 68 µM; Activity (Plasma [23]): Active; Ratio (Plasma [24]): 2; EC1.5 (Plasma [25]): 14 µM; Stability [26]: Stable; Stability [27]: Stable; Stability [28]: Stable
7 µM | > 25 µM | > 25 µM | > 25 µM | > 25 µM | > 25 µM | > 25 µM | > 25 µM | 210 | > 1190 | > 1190 | > 1190 | > 1190 | > 1190 | > 1190 | CC(C)N1CCCN(c2ccc(C(=O)n3nc(-c4ccccn4)nc3N)c3ccccc23)CC1 | Active | Active | Active | Active | Dose-Dependent Effect | Activity (RAW264.7 [14]): Dose-Dependent Effect; Activity (RAW264.7 [15]): Non-Toxic; Activity (Mus musculus [16]): Dose-Dependent Effect; Activity (Mus musculus [17]): ~10%; Activity (Mus musculus [18]): Active; Activity (Mus musculus [19]): Active; Activity (Mus musculus [20]): Active; Activity (Plasma [21]): 905%; EC1.5 (Plasma [22]): 37 µM; Activity (Plasma [23]): Active; Ratio (Plasma [24]): 2; EC1.5 (Plasma [25]): 9 µM; Stability [26]: Stable; Stability [27]: Stable; Stability [28]: Stable
